# Measurements: patent publication US20060110456A1, “Method for biocidal and/or biostatic treatment and compositions therefor” (NATIONAL UNIVERSITY OF SINGAPORE, priority 2004, published 2006)
# Entries after “also recorded” stand apart in the source; their conditions may differ. Structures can show the parent of a compound that is named as a salt. Where two headings read alike, the source gives them in different places.
# Columns and labels:
# [1] = system: biofilm bacteria (strains 4, 9, 14, 20, 27, 28); assay: Effect of pharmaceuticals on adhesion of bacteria to plastic / biofilm formation on NTC and TC plates; format: cell-based, marine bacteria isolated from Singapore fouling communities
# Description: Commercial forms of pharmaceuticals were used as previously described. […] These samples were sonicated for at least 1 min and these fine suspensions were used as initial stock solutions.
# For studies of bacterial adhesion, the pharmaceuticals were first sterilized by soaking in absolute alcohol (Merck) for half an hour. Ethanol was removed by air-drying with air passed through 0.25 μm pore size syringe filter (Sartorius, Germany). Stock solutions were concentrations of 100 μg ml−1 in SDI.
# The effect of pharmaceuticals on bacterial adhesion was analyzed using a modified microplate method adapted from Shea and Williamson (1990). This method employs a combination of staining attached bacteria with crystal violet, releasing the stain with sodium desoxycholate, and measuring the resulting absorbance of the crystal violet.
# Detailed results for six selected strains are presented here: strains 4, 9, 14, 20, 27, 28. The bacterial strains were grown in Marine Broth (Pronadisa, Spain) overnight, in the dark, at 28° C. on a rotary shaker (150 rpm) in 5 ml centrifuge tubes (Falcon). Cells were harvested by centrifugation (1500×g, 10 min) and resuspended in sterile seawater (SSW). SSW was prepared by filtering seawater through a 0.2 μm pore size filter (Sartorius) followed by autoclaving. The cells were centrifuged and resuspended once more in SSW. The concentration of resuspended cells was adjusted to A600=1.0 using a spectrophotometer (Beckman DU530, USA).
# Flat bottom 96 well polystyrene (hydrophobic, Falcon 351172) (=NTC) and tissue-culture treated polystyrene (hydrophilic, Falcon 353072) (=TC) microplates were used in the analyses. Each test was performed in triplicate. Two sets of experiments were conducted. […] For the control and blank wells, 25 ul of SDI were added. For wells containing pharmaceuticals, 25 ul of the respective pharmaceutical at a concentration of 100 ug ml−1 were added. This was immediately followed by the addition of 75 ul of bacterial suspension. To blanks were added 75 ul of SSW.
# The bacterial cells in suspension were allowed to attach for 2 h at 28° C. Unattached cells were removed by aspiration using a plate washer (Tecan, Austria) and wells were rinsed three times with 200 ul of SSW each time. The attached cells were stained with 200 ul of crystal violet solution (0.1% w/v in deionized water) in each well for 5 min. After removing the stain using the plate washer, the wells were rinsed twice with 300 ul of SDI each time. Sodium desoxycholate (200 ul) solution (2% w/v in deionized water) was added to each well to extract the crystal violet from the attached stained cells for 10 min. The absorbance of the crystal violet was read at 590 nm using a microplate reader (Sunrise, Tecan, Austria).
# Results of the adhesion assay were obtained by the difference in absorbance readings between wells containing bacterial cells and the mean of absorbance of those containing the SSW only. The effect of the pharmaceuticals on bacterial adhesion was determined by the examining the differences in absorbance between the wells containing the pharmaceuticals+bacteria and the bacteria. The significance was compared using T-test.
# [2] = system: Bugula neritina larvae; assay: Bioassay against bryozoan larvae; format: in vivo; conditions: crude rank, best (1) to worst (8)
# Description: Bugula neritina (Phylum Bryozoa, Class Gymnolaemata, Order Cheilostomatida) is a cosmopolitan species of bryozoan, commonly found in most marine fouling communities. The larvae are brooded in ovicells found on the stem of the colonies. When released, the larva will settle quickly on most surfaces, within a few minutes. At 24° C., the settled larvae forms the one-cell ancestrula, and after 48 hours, the lophophore has developed and extended for feeding.
# Adult colonies of Bugula neritina were collected from fouling communities growing on the submerged pontoons on a floating fish farm located off Changi, Singapore. Adult animals were maintained in the open-circulation aquarium at St John's island marine laboratory, Singapore. The adults were kept in total darkness for 24 hours. On exposure to light, larvae were released after half an hour. […] Because the larvae will settle quickly, larvae were pipetted directly into test wells in 1 ml of seawater using a graduated glass pipette.
# 4 replicates were done for each treatment. After 24 hours, larvae were scored as settled, swimming or dead/deformed. The assay plates were usually kept for another 24 hours and checked again, to ascertain that the settled larvae had developed into viable colonies with lophophores. Two trials were repeated for each compound.
# Bioassays were carried out using the method described above, in July 2003 during the peak spawning season for Bugula.
# [3] = system: marine bacteria (26 strains); assay: Disk inhibition assay; format: cell-based, marine bacteria isolated from Singapore fouling communities; conditions: for zone of inhibition at 25 µg/disc: 25 μg per disc; for zone of inhibition at 50 µg/disc: 50 μg per disc
# Method in brief: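 Tablets or capsule powders suspended in sterile water at 2 mg ml^−1 and loaded onto disks; antibiotic discs (Amp, Ery, Str, Tet) served as comparison. Disks placed on swabbed lawns on Marine Agar, incubated overnight in the dark at 30° C. Zone of clearing diameter measured by calipers; three replicates on three occasions.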
# [4] = crude rank, best (1) to worst (8)
smiles,measurement,setting,value
"CNCCC(Oc1ccc(C(F)(F)F)cc1)c1ccccc1 (stereo not drawn) [PZC, fluoxetine hydrochloride]",Effect on formation of bacterial biofilms on NTC and TC plates,"[1]; 25 ug ml−1, NTC = untreated polystyrene, TC = tissue-culture treated, strains 4, 9, 14, 20, 27, 28, hydrochloride",slight effect on biofilm formation in strain 4 on both TC and NTC plates; also recorded: slight effect on strain 4 (p<0.1)
same,Prevention of formation of biofilm,[1]; [4],5
same,Prevention of settlement of Bugula larvae,[2],3
same,Activity against the three Vibrio strains tested,[3],exhibited activity against the three Vibrio strains tested
same,Antibiotic activity against marine bacteria,[3],strongest activity
same,Number of strains inhibited out of 26 strains,[3],23
same,Strains showing no inhibition (of 26),[3],only strain 6 was not inhibited
same,Antibiotic activity against marine bacteria,[3]; [4],2
same,zone of inhibition at 25 µg/disc,[3]; strain 1 (Rhodovulum),< 5 mm
same,zone of inhibition at 50 µg/disc,[3]; strain 1 (Rhodovulum),5 to 9 mm
same,zone of inhibition at 25 µg/disc,[3]; strain 2 (Erythrobacter),10 to 19 mm
same,zone of inhibition at 50 µg/disc,[3]; strain 2 (Erythrobacter),10 to 19 mm
same,zone of inhibition at 25 µg/disc,[3]; strain 3 (Erythrobacter),10 to 19 mm
same,zone of inhibition at 50 µg/disc,[3]; strain 3 (Erythrobacter),10 to 19 mm
same,zone of inhibition at 25 µg/disc,[3]; strain 4 (Bacillus),10 to 19 mm
same,zone of inhibition at 50 µg/disc,[3]; strain 4 (Bacillus),20 to 29 mm
same,zone of inhibition at 25 µg/disc,[3]; strain 6 (Vibrio),< 5 mm
same,zone of inhibition at 50 µg/disc,[3]; strain 6 (Vibrio),< 5 mm
same,zone of inhibition at 25 µg/disc,[3]; strain 7 (Vibrio),< 5 mm
same,zone of inhibition at 50 µg/disc,[3]; strain 7 (Vibrio),10 to 19 mm
same,zone of inhibition at 25 µg/disc,[3]; strain 8 (Bacillus),10 to 19 mm
same,zone of inhibition at 50 µg/disc,[3]; strain 8 (Bacillus),20 to 29 mm
same,zone of inhibition at 25 µg/disc,[3]; strain 9 (Bacillus),10 to 19 mm
same,zone of inhibition at 50 µg/disc,[3]; strain 9 (Bacillus),10 to 19 mm
same,zone of inhibition at 25 µg/disc,[3]; strain 10 (Halobacillus),10 to 19 mm
same,zone of inhibition at 50 µg/disc,[3]; strain 10 (Halobacillus),10 to 19 mm
same,zone of inhibition at 25 µg/disc,[3]; strain 11 (Pseudomonas),10 to 19 mm
same,zone of inhibition at 50 µg/disc,[3]; strain 11 (Pseudomonas),20 to 29 mm
same,zone of inhibition at 25 µg/disc,[3]; strain 12 (Gordonia),10 to 19 mm
same,zone of inhibition at 50 µg/disc,[3]; strain 12 (Gordonia),20 to 29 mm
same,zone of inhibition at 25 µg/disc,[3]; strain 13 (Bacillus),10 to 19 mm
same,zone of inhibition at 50 µg/disc,[3]; strain 13 (Bacillus),10 to 19 mm
same,zone of inhibition at 25 µg/disc,[3]; strain 14 (Vibrio),10 to 19 mm
same,zone of inhibition at 50 µg/disc,[3]; strain 14 (Vibrio),10 to 19 mm
same,zone of inhibition at 25 µg/disc,[3]; strain 16 (Pseudoalteromonas),5 to 9 mm
same,zone of inhibition at 50 µg/disc,[3]; strain 16 (Pseudoalteromonas),10 to 19 mm
same,zone of inhibition at 25 µg/disc,[3]; strain 17 (Gordonia),10 to 19 mm
same,zone of inhibition at 50 µg/disc,[3]; strain 17 (Gordonia),20 to 29 mm
same,zone of inhibition at 25 µg/disc,[3]; strain 18 (Microbacterium),10 to 19 mm
same,zone of inhibition at 50 µg/disc,[3]; strain 18 (Microbacterium),10 to 19 mm
same,zone of inhibition at 25 µg/disc,[3]; strain 19 (Erythrobacter),10 to 19 mm
same,zone of inhibition at 50 µg/disc,[3]; strain 19 (Erythrobacter),20 to 29 mm
same,zone of inhibition at 25 µg/disc,[3]; strain 20,10 to 19 mm
same,zone of inhibition at 50 µg/disc,[3]; strain 20,10 to 19 mm
same,zone of inhibition at 25 µg/disc,[3]; strain 21,5 to 9 mm
same,zone of inhibition at 50 µg/disc,[3]; strain 21,10 to 19 mm
same,zone of inhibition at 25 µg/disc,[3]; strain 22,10 to 19 mm
same,zone of inhibition at 50 µg/disc,[3]; strain 22,10 to 19 mm
same,zone of inhibition at 25 µg/disc,[3]; strain 24,5 to 9 mm
same,zone of inhibition at 50 µg/disc,[3]; strain 24,10 to 19 mm
same,zone of inhibition at 25 µg/disc,[3]; strain 26,5 to 9 mm
same,zone of inhibition at 50 µg/disc,[3]; strain 26,5 to 9 mm
same,zone of inhibition at 25 µg/disc,[3]; strain 27,20 to 29 mm
same,zone of inhibition at 50 µg/disc,[3]; strain 27,20 to 29 mm
same,zone of inhibition at 25 µg/disc,[3]; strain 28,10 to 19 mm
same,zone of inhibition at 50 µg/disc,[3]; strain 28,10 to 19 mm
same,zone of inhibition at 25 µg/disc,[3]; strain 29,10 to 19 mm
same,zone of inhibition at 50 µg/disc,[3]; strain 29,20 to 29 mm
same,zone of inhibition at 25 µg/disc,[3]; strain 30,10 to 19 mm
same,zone of inhibition at 50 µg/disc,[3]; strain 30,10 to 19 mm
